Tests used:
human platelets = assay: Inhibition of U44069-induced threshold aggregation of human platelets; assay type: cell-based; settings: compound A versus compound 1; compound B versus compound 3
Procedure: INHIBITION OF INDUCED THRESHOLD AGGREGATION OF HUMAN PLATELETS
Human platelet rich plasma (PRP) is prepared from venous blood of male volunteers who have taken no medication for ten days prior to test. Blood is transferred into plastic centrifuge tubes containing 3.8% Trisodium Citrate in 0.9% NaCl (in a ratio of blood to anticoagulant of 9:1), mixed by gentle inversion, and centrifuged at room temperature for ten minutes at 116 g. The supernatant (PRP) is transferred into plastic tubes. Platelet poor plasma (PPP) is obtained by centrifuging the residual blood cells at 4000 g for ten minutes. PRP is left to stand at least one half hour prior to testing.
Platelet Aggregation is measured using a Payton Aggregometer and Recorder. […]
The threshold (approximately 20-30% of maximum) aggregation concentration of the agonist to be used is first determined in the presence of the drug vehicle (control). […]
The height of the aggegation response (measured in divisions of the recorder paper, 1 division=2.5 mm) in the presence of the drug is recorded, and calculated as percent inhibition of the mean height of the control threshold responses. […]

[1] = biological target: T1, guinea pig tracheal chain (Cavia porcellus, UniProt A0A286Y4I8); assay: Estimation of pA2 values in guinea pig tracheal chain (agonist U-44069); assay type: cell-based, guinea pig (male albino Hartley strain); settings: for Kb: logarithmic scale, agonist U-44069, guinea pig tracheal chain
T1 construct: The trachea was removed, freed of extraneous tissue and sectioned into rings; from tissue; host or cells: guinea pig trachea (male albino Hartley strain)
T1 sequence (A0A286Y4I8 1-347): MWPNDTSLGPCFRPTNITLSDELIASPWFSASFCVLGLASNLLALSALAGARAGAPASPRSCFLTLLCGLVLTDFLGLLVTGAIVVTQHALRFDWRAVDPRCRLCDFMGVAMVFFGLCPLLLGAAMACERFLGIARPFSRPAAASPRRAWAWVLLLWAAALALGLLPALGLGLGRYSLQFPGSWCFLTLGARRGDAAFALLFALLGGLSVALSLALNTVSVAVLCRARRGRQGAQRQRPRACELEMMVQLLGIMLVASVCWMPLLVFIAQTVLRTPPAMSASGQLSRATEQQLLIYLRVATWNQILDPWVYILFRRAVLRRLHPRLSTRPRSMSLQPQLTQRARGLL
Source text: ESTIMATION OF pA2 VALUES IN GUINEA PIG TRACHEAL CHAIN
Male albino Hartley strain guinea pigs (300-350 gm) were sacrificed by a blow to the head and exsanguinated. The trachea was removed, freed of extraneous tissue and sectioned into rings of 1-2 mm thickness. Five rings were tied together in series, ensuring that the tracheal muscle lay in the same vertical plane, and the cartilage of each ring then separated at a point directly opposite the muscle. The chains were suspended under 1 gm resting tension in modified Krebs solution (NaCl, 6.87; NaHCO3, 2.1; dextrose, 2.1; KCl, 0.32; CaCl2, 0.28; MgSO4, 7H2 O, 0.11; KH2 PO4, 0.16; gm/L: equilibrated with 5% CO2 in O2 for 1 hour) containing indomethacin (1.4×10-^5 M) to suppress endogenous protaglandin synthesis, Organ bath temperature was maintained at 37° C. and 5% CO2 in O2 diffused continously. Isometric tension changes were recorded from a Gould-Statham (UTC 2) force displacement transducer connected to a Beckman Type R Dynograph. For assay purposes initial maximal contractions were elicited with a high concentration of the contractile agonist [U-44069, 9.11-dideoxy-9a,11a-epoxymethano PGF2a ] and the tissue subsequently washed at intervals until tension returned to baseline. Agonist dose response curves were obtained using a cumulative-dose schedule (4-8 doses) and the preparations then washed at regular intervals until baseline tension was recorded. After an appropriate interval (1-1.5 hrs) agonist dose response curves were repeated in the presence of antagonist drug concentrations. […] EC50 values were obtained by regression analysis and used to calculate `apparent` and Schild Plot pA2 values by the method of Tallarida and Murray 1981.
In Table 6 below are presented data indicating the prostanoid antagonist activities of compounds of the present invention indicated in Table 1. It is to be noted that pA2 values are on a logarithmic scale, so that, for instance, a difference between two pA2 values of 1 represents a difference in potency by a factor of 10.

In the case of `COc1ccc2c(c1)c1c(n2Cc2ccc(Cl)cc2)CC(C(=O)O)CC1` (stereo not drawn) [Compound B, reference compound], the “potency as an inhibitor of platelet aggregation relative to the seven-membered ring analog” value (human platelets) is reported as “at least four times less potent than the latter” and the “pA2 compared with compound 3, in words” value ([1]; compound B versus compound 3) is reported as “slightly lower pA2 value”.

Molecule `O=C(O)CC1CCCCc2c1c1cc(F)ccc1n2Cc1ccc(Cl)cc1` (stereo not drawn) has a Kb [1] of 42.7 nM.

`O=C(O)CC1CCCc2c(n(Cc3ccc(Cl)cc3)c3ccc(F)cc23)C1` (stereo not drawn) was tested, and the Kb [1] was 3.16 nM.

For `O=C(O)C1CCCc2c(n(Cc3ccc(Cl)cc3)c3ccc(F)cc23)C1` (stereo not drawn), the Kb [1] was 129 nM.

`COc1ccc2c(c1)c1c(n2Cc2ccc(Cl)cc2)CC(C(=O)O)CC1` (stereo not drawn) [drawing 27] showed a Kb [1] of 158 nM.

`COc1ccc2c(c1)c1c(n2Cc2ccc(Cl)cc2)CC(CC(=O)O)CC1` (stereo not drawn) [drawing 26] gave a Kb [1] of 158 nM.

`O=C(O)CC1CCCCc2c1n(Cc1ccc(Cl)cc1)c1ccc(F)cc21` (stereo not drawn) showed a Kb [1] of 1.35 nM.

`CS(=O)(=O)c1ccc(Cn2c3c(c4cc(F)cc(F)c42)CCCC(CC(=O)O)C3)cc1` (stereo not drawn) showed a Kb [1] of 8.32 nM.

In the case of `COc1ccc2c(c1)c1c(n2Cc2ccc(Cl)cc2)CC(CC(=O)O)CC1` (stereo not drawn) [Compound A, reference compound], the “potency as an inhibitor of platelet aggregation relative to the seven-membered ring analog” value (human platelets) is reported as “seventy times less potent than compound 1”, the “factor corresponding to the pA2 difference from compound 1” value ([1]; compound A versus compound 1) is reported as 15 and the “pA2 lower than that of compound 1” value ([1]; compound A versus compound 1) is reported as 1.7 log units.
